We go through one compound from patent US20200121747A1, “COMPOSITION FOR PREVENTING OR TREATING ARTHRITIS COMPRISING HYDROQUINOIC ACID” (PUKYONG NATIONAL UNIVERSITY INDUSTRY-UNIVERSITY COOPERATION …, priority 2018, published 2020).

The data set is described as follows: Body weight change in rheumatoid arthritis (CIA) mice. The class given is in vivo, DBA/1J mice. The conditions noted are these: arthritis mice treated with 10 mg and 20 mg of SHQA; measured weekly for 7 weeks; FIG. 4. On the procedure: Eight weeks old male DBA/1J mice (Central Lab Animal Inc., Seoul, Korea) were raised for 1 week in an environment maintaining temperature (25±2° C.), humidity (55%) and 12 hour light and dark cycle. All experiments were carried out in accordance with the guidelines of the Korean National Institutes of Health Guide for the Care and Use of Laboratory Animals, and the animal testing procedure was approved by the Animal Ethics Committee of Pukyong National University (2015-12). Rheumatoid arthritis was induced in male DBA/1J mice. Type II collagen was emulsified (CFA; 2 mg/mL) in the same volume of complete Freund's adjuvant. On day 0, 100 μg of […] was injected intradermally into the lower tail portion of the DBA/1J mice to immunize. After 21 days, 100 μg of CII (IFA; 2 mg/mL) emulsified in the same volume of incomplete Freund's adjuvant in the lower tail portion of the mice was boosted by intradermal injection. On day 42, all mice were anesthetized with ether and sacrificed. Blood (plasma sample), spleen, liver and joint tissues were immediately removed and stored at −80° C. […]
For the control group without treatment, the arthritis animal group (CIA treatment group), and the treated group in which arthritis experimental animals were treated with 10 mg and 20 mg of SHQA, their body weights were measured weekly for 7 weeks. […]

Molecules are shown by their SMILES.

With `CC(C)=CCC/C(=C/CC/C(C)=C/CC/C(C)=C/Cc1cc(O)cc(C)c1O)C(=O)O` [SHQA, sargahydroquinoic acid], the “change in body weight” value is “no significant change in body weight”.
